The source of these data is patent publication US10538555B2, “Macrocyclic inhibitors of the PD-1/PD-L1 and CD80(B7-1)/PD-L1 protein/protein interactions” (BRISTOL-MYERS SQUIBB COMPANY, priority 2014, dated 2020).

The target of the assay is T1, Human PD-L1/PD-1 (Homo sapiens, UniProt Q9NZQ7).
T1 construct: TVMV protease cleavage site (C); made in house; host or cells: HEK293T cells
As to the kind of experiment: HTRF Human PD-L1/PD-1 binding assay (PD-1-Ig/PD-L1-His). The conditions noted are these: PD-L1-His 10 nM, PD-1-Ig 20 nM. The gist of the method:
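Inhibitors were preincubated 15 min with human PD-L1(18-239)-His (10 nM final), then PD-1(25-167)-Ig (20 nM final) was added for 15 min in dPBS/0.1% BSA/0.05% Tween-20. Eu-cryptate anti-Ig (1 nM) and APC anti-His (20 nM) were added; 665/620 nm ratio read after 30 min.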
Background: In TR-FRET formats the signal depends on donor and acceptor labels being close together.

The mark [1] stands for this setting: read-out: HTRF Human PD-L1/PD-1 Binding Assay IC50.
Setting [2] is: class symbol, read-out: HTRF Human PD-L1/PD-1 Binding Assay IC50 Range.

pIC50: −log10 of the molar value. Read-outs that look alike come from different tables or passages of the source. Where a SMILES comes first, the peptide text is derived from it. Bridges are numbered along the chain shown (N, C = ends). [ ]: non-standard residue; d: D form. Phe(3,4,5-F3) = N[C@@H](Cc1cc(F)c(F)c(F)c1)C(=O)O; d(cisHyp) = O=C(O)[C@H]1C[C@@H](O)CN1; NMeF = CN[C@@H](Cc1ccccc1)C(=O)O; NMeNle = CCCC[C@H](NC)C(=O)O; Orn = NCCC[C@H](N)C(=O)O; Dab = NCC[C@H](N)C(=O)O; Dap = NC[C@H](N)C(=O)O

T1 sequence (Q9NZQ7 with tags, fused parts or gaps): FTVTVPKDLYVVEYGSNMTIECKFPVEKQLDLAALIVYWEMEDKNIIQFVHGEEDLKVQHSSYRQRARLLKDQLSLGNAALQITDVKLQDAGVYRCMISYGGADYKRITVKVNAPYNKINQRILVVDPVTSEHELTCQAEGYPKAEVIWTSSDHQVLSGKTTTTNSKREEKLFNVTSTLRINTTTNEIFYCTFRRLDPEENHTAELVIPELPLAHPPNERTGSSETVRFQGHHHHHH

Consider `CCCC[C@H]1C(=O)N2C[C@H](O)C[C@@H]2C(=O)N[C@@H](CC(=O)O)C(=O)N[C@@H](C(C)C)C(=O)N(C)[C@@H](Cc2ccccc2)C(=O)N[C@@H](CC(=O)O)C(=O)N2C[C@H](O)C[C@@H]2C(=O)N[C@@H](Cc2c[nH]c3ccccc23)C(=O)N[C@@H](Cc2ccc(O)cc2)C(=O)N[C@@H](CCN)C(=O)N[C@H](C(=O)NCC(N)=O)CSCC(=O)N[C@@H](Cc2cc(F)c(F)c(F)c2)C(=O)N(C)[C@@H](Cc2ccccc2)C(=O)N1C` [Example 9347] ({CH2CO}-[Phe(3,4,5-F3)][NMeF][NMeNle][d(cisHyp)]DV[NMeF]D[d(cisHyp)]WY[Dab]CG-NH2; thioether N-13), for which the pIC50 under setting [1] was 7.96. Consider `CCCC[C@H]1C(=O)N2C[C@H](O)C[C@@H]2C(=O)N[C@@H](CC(=O)O)C(=O)N[C@@H](C(C)C)C(=O)N(C)[C@@H](Cc2ccccc2)C(=O)N[C@@H](CC(=O)O)C(=O)N2C[C@H](O)C[C@@H]2C(=O)N[C@@H](Cc2c[nH]c3ccccc23)C(=O)N[C@@H](Cc2ccc(O)cc2)C(=O)N[C@@H](CN)C(=O)N[C@H](C(=O)NCC(N)=O)CSCC(=O)N[C@@H](Cc2cc(F)c(F)c(F)c2)C(=O)N(C)[C@@H](Cc2ccccc2)C(=O)N1C` [Example 9348] ({CH2CO}-[Phe(3,4,5-F3)][NMeF][NMeNle][d(cisHyp)]DV[NMeF]D[d(cisHyp)]WY[Dap]CG-NH2; thioether N-13), for which the pIC50 under setting [2] was 7.00 to 8.00.

For `CCCC[C@H]1C(=O)N2C[C@H](O)C[C@@H]2C(=O)N[C@@H](CC(=O)O)C(=O)N[C@@H](C(C)C)C(=O)N(C)[C@@H](Cc2ccccc2)C(=O)N[C@@H](CC(=O)O)C(=O)N2C[C@H](O)C[C@@H]2C(=O)N[C@@H](Cc2c[nH]c3ccccc23)C(=O)N[C@@H](Cc2ccc(O)cc2)C(=O)N[C@@H](CCC(=O)O)C(=O)N[C@H](C(=O)NCC(N)=O)CSCC(=O)N[C@@H](Cc2cc(F)c(F)c(F)c2)C(=O)N(C)[C@@H](Cc2ccccc2)C(=O)N1C` [Example 9349] ({CH2CO}-[Phe(3,4,5-F3)][NMeF][NMeNle][d(cisHyp)]DV[NMeF]D[d(cisHyp)]WYECG-NH2; thioether N-13), under setting [2], the pIC50 is 7.00 to 8.00. Turning to `CCCC[C@H]1C(=O)N2C[C@H](O)C[C@@H]2C(=O)N[C@@H](CC(=O)O)C(=O)N[C@@H](C(C)C)C(=O)N(C)[C@@H](Cc2ccccc2)C(=O)N[C@@H](CC(=O)O)C(=O)N2C[C@H](O)C[C@@H]2C(=O)N[C@@H](Cc2c[nH]c3ccccc23)C(=O)N[C@@H](Cc2ccc(O)cc2)C(=O)N[C@@H](CC(=O)O)C(=O)N[C@H](C(=O)NCC(N)=O)CSCC(=O)N[C@@H](Cc2cc(F)c(F)c(F)c2)C(=O)N(C)[C@@H](Cc2ccccc2)C(=O)N1C` [Example 9350] ({CH2CO}-[Phe(3,4,5-F3)][NMeF][NMeNle][d(cisHyp)]DV[NMeF]D[d(cisHyp)]WYDCG-NH2; thioether N-13), under setting [2], the pIC50 is 7.00 to 8.00. Same read-out and setting: under `CCCC[C@H]1C(=O)N2C[C@H](O)C[C@@H]2C(=O)N[C@@H](CC(=O)O)C(=O)N[C@@H](C(C)C)C(=O)N(C)[C@@H](Cc2ccccc2)C(=O)N[C@@H](CC(=O)O)C(=O)N2C[C@H](O)C[C@@H]2C(=O)N[C@@H](Cc2c[nH]c3ccccc23)C(=O)N[C@@H](Cc2ccc(O)cc2)C(=O)N[C@@H](CCC(N)=O)C(=O)N[C@H](C(=O)NCC(N)=O)CSCC(=O)N[C@@H](Cc2cc(F)c(F)c(F)c2)C(=O)N(C)[C@@H](Cc2ccccc2)C(=O)N1C` [Example 9351] ({CH2CO}-[Phe(3,4,5-F3)][NMeF][NMeNle][d(cisHyp)]DV[NMeF]D[d(cisHyp)]WYQCG-NH2; thioether N-13) stands 7.00 to 8.00.

Turning to `CCCC[C@H]1C(=O)N2C[C@H](O)C[C@@H]2C(=O)N[C@@H](CC(=O)O)C(=O)N[C@@H](C(C)C)C(=O)N(C)[C@@H](Cc2ccccc2)C(=O)N[C@@H](CC(=O)O)C(=O)N2C[C@H](O)C[C@@H]2C(=O)N[C@@H](Cc2c[nH]c3ccccc23)C(=O)N[C@@H](Cc2ccc(O)cc2)C(=O)N[C@@H](CC(N)=O)C(=O)N[C@H](C(=O)NCC(N)=O)CSCC(=O)N[C@@H](Cc2cc(F)c(F)c(F)c2)C(=O)N(C)[C@@H](Cc2ccccc2)C(=O)N1C` [Example 9352] ({CH2CO}-[Phe(3,4,5-F3)][NMeF][NMeNle][d(cisHyp)]DV[NMeF]D[d(cisHyp)]WYNCG-NH2; thioether N-13), under setting [2], the pIC50 is 8.00 to 9.00. On the same count and under the same terms, under `CCCC[C@H]1C(=O)N2C[C@H](O)C[C@@H]2C(=O)N[C@@H](CC(=O)O)C(=O)N[C@@H](C(C)C)C(=O)N(C)[C@@H](Cc2ccccc2)C(=O)N[C@@H](CCC(N)=O)C(=O)N2C[C@H](O)C[C@@H]2C(=O)N[C@@H](Cc2c[nH]c3ccccc23)C(=O)N[C@@H](Cc2ccc(O)cc2)C(=O)N[C@@H](CCCCN)C(=O)N[C@H](C(=O)NCC(N)=O)CSCC(=O)N[C@@H](Cc2cc(F)c(F)c(F)c2)C(=O)N(C)[C@@H](Cc2ccccc2)C(=O)N1C` [Example 9353] ({CH2CO}-[Phe(3,4,5-F3)][NMeF][NMeNle][d(cisHyp)]DV[NMeF]Q[d(cisHyp)]WYKCG-NH2; thioether N-13) stands 8.00 to 9.00; under `CCCC[C@H]1C(=O)N2C[C@H](O)C[C@@H]2C(=O)N[C@@H](CC(=O)O)C(=O)N[C@@H](C(C)C)C(=O)N(C)[C@@H](Cc2ccccc2)C(=O)N[C@@H](CCC(N)=O)C(=O)N2C[C@H](O)C[C@@H]2C(=O)N[C@@H](Cc2c[nH]c3ccccc23)C(=O)N[C@@H](Cc2ccc(O)cc2)C(=O)N[C@@H](CCCN)C(=O)N[C@H](C(=O)NCC(N)=O)CSCC(=O)N[C@@H](Cc2cc(F)c(F)c(F)c2)C(=O)N(C)[C@@H](Cc2ccccc2)C(=O)N1C` [Example 9354] ({CH2CO}-[Phe(3,4,5-F3)][NMeF][NMeNle][d(cisHyp)]DV[NMeF]Q[d(cisHyp)]WY[Orn]CG-NH2; thioether N-13), 8.00 to 9.00. The same measure, in the same setting: under `CCCC[C@H]1C(=O)N2C[C@H](O)C[C@@H]2C(=O)N[C@@H](CC(=O)O)C(=O)N[C@@H](C(C)C)C(=O)N(C)[C@@H](Cc2ccccc2)C(=O)N[C@@H](CCC(N)=O)C(=O)N2C[C@H](O)C[C@@H]2C(=O)N[C@@H](Cc2c[nH]c3ccccc23)C(=O)N[C@@H](Cc2ccc(O)cc2)C(=O)N[C@@H](CCN)C(=O)N[C@H](C(=O)NCC(N)=O)CSCC(=O)N[C@@H](Cc2cc(F)c(F)c(F)c2)C(=O)N(C)[C@@H](Cc2ccccc2)C(=O)N1C` [Example 9355] ({CH2CO}-[Phe(3,4,5-F3)][NMeF][NMeNle][d(cisHyp)]DV[NMeF]Q[d(cisHyp)]WY[Dab]CG-NH2; thioether N-13) stands 8.00 to 9.00.

Regarding `CCCC[C@H]1C(=O)N2C[C@H](O)C[C@@H]2C(=O)N[C@@H](CC(=O)O)C(=O)N[C@@H](C(C)C)C(=O)N(C)[C@@H](Cc2ccccc2)C(=O)N[C@@H](CCC(N)=O)C(=O)N2C[C@H](O)C[C@@H]2C(=O)N[C@@H](Cc2c[nH]c3ccccc23)C(=O)N[C@@H](Cc2ccc(O)cc2)C(=O)N[C@@H](CN)C(=O)N[C@H](C(=O)NCC(N)=O)CSCC(=O)N[C@@H](Cc2cc(F)c(F)c(F)c2)C(=O)N(C)[C@@H](Cc2ccccc2)C(=O)N1C` [Example 9356] ({CH2CO}-[Phe(3,4,5-F3)][NMeF][NMeNle][d(cisHyp)]DV[NMeF]Q[d(cisHyp)]WY[Dap]CG-NH2; thioether N-13), the pIC50 under setting [1] was 6.82.
